These results are taken from patent publication US10045990B2, “ERBB4 inhibitors and methods of use thereof” (Arizona Board of Regents on behalf of Arizona State …, priority 2015, dated 2018).

The test system of this experiment is protein-tyrosine kinases from the human genome. Conditions: compared to the control slides (FIG. 9). How it is done: NAPPA kinase microarrays we generated with virtually all protein-tyrosine kinases from the human genome. The coding sequence for each tyrosine kinase was clone into an expression plasmid and immobilized on the microarray surface, with one protein kinase per feature. After the microarray was expressed, any phosphorylation that occurred during the expression step was removed by a treatment with lambda phosphatase.
Unphosphorylated microarrays were then incubated with a kinase buffer (25 mM Tris-HCl (pH 7.5), 5 mM beta-glycerophosphate, 2 mM dithiothreitol (DTT), 0.1 mM Na3VO4, 10 mM MgCl2) supplemented with […] and/or kinase inhibitors (concentration ranging from 0-10 uM). The kinase autophosphorylation activity was measured through the levels of phosphorylation present in each feature and was detected by phospho-tyrosine antibody. […] Staurosporine is a pan kinase inhibitor used as a control.

With `CN[C@@H]1C[C@H]2O[C@@](C)([C@@H]1OC)n1c3ccccc3c3c4c(c5c6ccccc6n2c5c31)C(=O)NC4` [Staurosporine], the “overall phosphorylation signal of the microarrays” value is given as “drastically reduce”.
